Laboratory results published in US10588608B2, “Sampling systems and related materials and methods” (Progenity Inc., priority 2016, dated 2020).
Where two headings read alike, the source gives them in different places.

Legend:
[1] = tested on: bacterial cells; conditions: preservative with TENT, PCR or plating, FIG. 59A/59B
[2] = tested on: bacteria; assay: Bactericidal preservatives added to bacteria, cell counts by flow cytometry or cell plating; assay type: cell-based; conditions: cell counts over 3 days, FIG. 60
[3] = high concentration culture, 4.5×10^6 cells
[4] = low concentration culture, 8.6×10^4 cells

Compound | viability of bacteria [1, 3] | viability of bacteria [1, 4] | viability of bacteria over time [2]
OCCOc1ccccc1 [2-phenoxyethanol] | reduce the viability of bacteria | reduce the viability of bacteria | –
O=C(NCO)N(CO)C1(CO)C(=O)NC(=O)N1CO (centres unmarked) [diazolidinyl urea] | – | – | reduced the viability of bacteria
C/C=C/C=C/C(=O)O [sorbic acid] | reduce the viability of bacteria | reduce the viability of bacteria | –
C[CH2][Hg][S]c1ccccc1C(=O)[O-].[Na+] [thimerosal] | reduce the viability of bacteria | reduce the viability of bacteria | reduced the viability of bacteria
